In patent US20140242609A1, “Diagnosis and treatment of kidney stones, methods and compositions therefor” (Washington University, priority 2013, published 2014):

Key:
[1] = 24 hr urinalysis in metabolic cages, plasma and urine electrolytes; format: in vivo, mouse
Method: Age (9-10 weeks old) and sex (male) matched wild-type and CLDN14 KO mice were housed individually in metabolic cages (Harvard Apparatus) with free access to water and food for 24 hr. Urine was collected under mineral oil. The plasma and urine Ca^++ and Mg^2+ levels were determined with atomic flame absorption spectrophotometer (PerkinElmer). The plasma (P) and urine (U) electrolyte levels were determined with the Roche Cobas clinical analyzer (Roche Diagnostics). […] The fractional excretion of electrolytes was calculated using the following equation: FEion=V×Uion/(GFR×Pion), where GFR was calculated according to the clearance rate of creatinine (GFR=V×Ucreatinine/Pcreatinine).
Mice were housed individually in metabolic cages (Harvard Apparatus) with free access to water and food for 24 hr. Urine was collected under mineral oil. The plasma and urine Ca^++ and Mg^++ levels were determined with atomic flame absorption spectrophotometer (PerkinElmer). The creatinine levels were measured with an enzymatic method that was independent of plasma chromogens.

[2] = test system: CLDN14 mRNA; test: CLDN14 mRNA levels in primary cultures / freshly isolated mouse TALH cells (real-time PCR); format: cell-based; conditions: 0.01 μM; versus vehicle
Method: (§1) An immunomagnetic separation method was used to isolate the TAL cells from the mouse kidney (Hou et al., 2009). Antibodies against the TAL cell specific surface antigen, Tamm-Horsfall protein (THP), were coated onto the paramagnetic polystyrene beads (Dynabeads M-280; Dynal), allowing immunoprecipitation of the TAL cells from collagenase digested mouse kidneys. The isolated cells were plated in DMEM medium supplemented with 10% FBS, penicillin/streptomycin, and 1 mM sodium pyruvate for 16 hours, followed by immediate transfection with NFAT or antagomirs.
(§2) Total RNA including microRNA was extracted using Trizol (Invitrogen). Cellular mRNA was reverse transcribed using the Superscript-III kit (Invitrogen), followed by real-time PCR amplification using SYBR Green PCR Master Mix (Bio-Rad) and Eppendorf Realplex2S system. The design of claudin-14 primers was described above. The design of pri-miRNA primers was according to Ma et al., (2010). Results were expressed as 2^−ΔCt values with ΔCT=Ctgene−Ctβ-actin.
as §1, with “TALH” for “TAL”, “kidney. (Gong Y,” for “kidney (Hou”, “al. 2012 and Gong Y, et al. 2013)” for “al., 2009).”, “protein,” for “protein (THP),”, “treatment.” for “transfection with NFAT or antagomirs.”
Total RNA including microRNA was extracted using Trizol (Invitrogen). Cellular mRNA was reverse transcribed using the Superscript-III kit (Invitrogen), followed by real-time PCR amplification using SYBR Green PCR Master Mix (Bio-Rad) and Eppendorf Realplex2S system. […] Results were expressed as 2^−ΔCt values with ΔCT=Ctgene−Ctβ-actin. […]
Total RNA including microRNA was extracted using Trizol (Invitrogen). […] Results were expressed as 2^−ΔCt values with ΔCT=Ctgene−Ctβ-actin. […]

[3] = test system: claudin-14 mRNA; test: claudin-14 mRNA levels in mouse kidney after systemic treatment (real-time PCR); format: in vivo; conditions: 1 mg/kg BW−1; 4 hr
Method: NPS2143 and cinacalcet (Table 1) were dissolved in vehicle—20% (w/v) (2-Hydroxypropyl)-β-cyclodextrin solution and fed to mice with gavage syringe. Cyclosporin-A (Sandimmune; Table 1) was diluted in 0.9% saline and I.P. injected to animals. Control animals received vehicle injection (13% wiv Cremophor EL and 32.9% ethanol). For dietary Ca^2+ manipulation, animals were fed with the following diets for six consecutive days: basal diet: 0.61% Ca^2+ (TestDiet #5755); low Ca^2+ diet: 0 Ca^++ (TestDiet #5855); high Ca^2+ diet: 5% Ca^2+ (TestDiet #5AVB). All animals had free access to water and were housed under a 12 hr light cycle. Blood samples were taken by cardiac puncture rapidly after initiation of terminal anesthesia and centrifuged at 4° C. for 10 min. Kidney were dissected out and immediately frozen at −80° C.
as §2
SAHA and TsA were dissolved in 5% (w/v) ethanol/0.9% saline solution and fed to mice with gavage syringe. Furosemide was dissolved in 50% (w/v) DMSO/0.9% saline solution and I.P. injected to animals. All animals had free access to water and were housed under a 12 hr light cycle. Blood samples were taken by cardiac puncture rapidly after initiation of terminal anesthesia and centrifuged at 4° C. for 10 min. Kidney were dissected out and immediately frozen at −80° C.
Total RNA including microRNA was extracted using Trizol (Invitrogen). Cellular mRNA was reverse transcribed using the Superscript-III kit (Invitrogen), followed by real-time PCR amplification using SYBR Green PCR Master Mix (Bio-Rad) and Eppendorf Realplex2S system. The design of claudin-14 primers was described before by Gong et al., 2012. The design of pri-miRNA primers and ChIP primers was according to Gong et al., 2013. Results were expressed as 2^−ΔCt values with ΔCT=Ctgene−Ctβ-actin. […]
NPS2143 and cinacalcet (Table 9) were dissolved in vehicle −20% (w/v) (2-Hydroxypropyl)-β-cyclodextrin solution and fed to mice with gavage syringe. Cyclosporin-A (Sandimmune; Table 9) was diluted in 0.9% saline and I.P. injected to animals. Control animals received CNI vehicle injection (13% wiv Cremophor EL and 32.9% ethanol). FK506 was dissolved in CNI vehicle, diluted in 0.9% saline and I.P. injected to animals. For dietary Ca^+ manipulation, animals were fed with the following diets for six consecutive days: basal diet: 0.610% Ca^++ (TestDiet #5755); low Ca^++ diet: 0 Ca^++ (TestDiet #5855); high Ca^++ diet: 5% Ca^+ (TestDiet #5AVB). All animals had free access to water and were housed under a 12 hr light cycle. Blood samples were taken by cardiac puncture rapidly after initiation of terminal anesthesia and centrifuged at 4° C. for 10 min. Kidney were dissected out and immediately frozen at −80° C.
Total RNA including microRNA was extracted using Trizol (Invitrogen). Cellular mRNA was reverse transcribed using the Superscript-III kit (Invitrogen), followed by real-time PCR amplification using SYBR Green PCR Master Mix (Bio-Rad) and Eppendorf Realplex2S system. The design of claudin-14 primers was described before by Gong. Y., et al., 2012. The design of pri-miRNA primers was according to Ma. L., et al., 2010. Results were expressed as 2^−ΔCt values with ΔCT=Ctgene−Ctβ-actin.

[4] = test system: CLDN14; test: CLDN14 expression in cultured MKTAL cells; format: cell-based, mouse; conditions: 1 nM, 10 nM and 100 nM
[5] = target: T1, human CLDN16 (AF152101) (human, UniProt Q9Y5I7 1-235); test: cell-based or functional assay
T1 sequence (looked up): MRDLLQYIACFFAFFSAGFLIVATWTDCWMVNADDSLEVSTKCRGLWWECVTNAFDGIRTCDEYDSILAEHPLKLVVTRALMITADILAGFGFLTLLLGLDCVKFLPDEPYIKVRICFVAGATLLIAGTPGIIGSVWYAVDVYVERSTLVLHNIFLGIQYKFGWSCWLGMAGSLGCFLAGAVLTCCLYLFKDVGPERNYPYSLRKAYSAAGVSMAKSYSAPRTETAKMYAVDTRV

[6] = WT pre-treated with furosemide 40 mg/kg BW−1 per day, Veh + Furo = furosemide alone

NS(=O)(=O)c1cc(C(=O)O)c(NCc2ccco2)cc1Cl [Furo, Furosemide]
ECa [1, 6]: 2.84 ± 0.78 ug/24 hr · g | EMg [1, 6]: 13.24 ± 3.13 ug/24 hr · g | FECa [1, 6]: 1.89 ± 0.67 % | FEMg [1, 6]: 32.83 ± 1.30 % | PCa [1, 6]: 10.61 ± 0.43 mg/dL | PMg [1, 6]: 2.33 ± 0.11 mg/dL

CC(/C=C/C(=O)NO)=C\[C@@H](C)C(=O)c1ccc(N(C)C)cc1 [TsA, Trichostatin A]
CLDN14 mRNA levels, reduction [2]: 64% | CLDN14 mRNA levels in the kidney, decrease [3]: 71% | effects on renal Ca++ and Mg++ metabolism (compared with SAHA) ([1]; 1 mg/kg BW−1 per day): exerted similar effects

B1: PTH: human recombinant PTH (1-84; Sigma) (protein, UniProt P01270 32-115, looked up)
Parathyroid hormone: SVSEIQLMHNLGKHLNSMERVEWLRKKLQDVHNFVALGAPLAPRDAGSQRPRKKEDNVLVESHEKSLGEADKADVNVLTKAKSQ
modifications: Parathyroid hormone
CLDN14 gene expression [4]: no significant effect

B2: mouse CLDN14 (AF314089) (other, UniProt Q9Z0S3 1-239, looked up)
chain: MASTAVQLLGFLLSFLGMVGTLITTILPHWRRTAHVGTNILTAVSYLKGLWMECVWHSTGIYQCQIYRSLLALPRDLQAARALMVISCLLSGMACACAVVGMKCTRCAKGTPAKTTFAVLGGALFLLAGLLCMVAVSWTTNDVVQNFYNPLLPSGMKFEIGQALYLGFISSSLSLIGGTLLCLSCQDEAPYRPYPPQSRAGATTTATAPAYRPPAAYKDNRAPSVTSAAHSGYRLNDYV
fold decrease of absolute Na+ permeability, CLDN14+16+19 versus CLDN16+19 [5]: 2.43 fold | fold reduction of PNa by CLDN14 in CLDN16 cell background [5]: 2.03 fold
